For assay [1] the following is noted: K34R mutant; cited from earlier work.
In a further assay the test system is C57BL/6J mice. The assay is described as follows: In vivo intraperitoneal glucose tolerance test (IPGTT). The conditions noted are these: C57BL/6J male mice, 100 nmol/kg subcutaneous 1 h before glucose 1.5 g/kg i.p., 0-120 min, n = 6. As to the method:
We performed in vivo intraperitoneal glucose tolerance tests (IPGTTs) on seven-week-old male C57BL/6J mice, which we purchased from DBL. The mice were randomly divided into five groups (n = 6). The IPGTTs were performed after glucose (1.5 g/kg dose) had been intraperitoneally administered to C57BL/6J male mice that had been fasted for 3 h. We obtained blood samples from the tail of each mouse at the predetermined time using an Accu-Check Guide (Roche Diabetes Care, Indianapolis, IN, USA).

For assay [2], the target named is human GLP-1 receptor (GLP-1R) overexpressed on HEK-293 cells (human) (UniProt P43220).
Chain of human GLP-1 receptor (GLP-1R) overexpressed on HEK-293 cells (human) (P43220 24-463): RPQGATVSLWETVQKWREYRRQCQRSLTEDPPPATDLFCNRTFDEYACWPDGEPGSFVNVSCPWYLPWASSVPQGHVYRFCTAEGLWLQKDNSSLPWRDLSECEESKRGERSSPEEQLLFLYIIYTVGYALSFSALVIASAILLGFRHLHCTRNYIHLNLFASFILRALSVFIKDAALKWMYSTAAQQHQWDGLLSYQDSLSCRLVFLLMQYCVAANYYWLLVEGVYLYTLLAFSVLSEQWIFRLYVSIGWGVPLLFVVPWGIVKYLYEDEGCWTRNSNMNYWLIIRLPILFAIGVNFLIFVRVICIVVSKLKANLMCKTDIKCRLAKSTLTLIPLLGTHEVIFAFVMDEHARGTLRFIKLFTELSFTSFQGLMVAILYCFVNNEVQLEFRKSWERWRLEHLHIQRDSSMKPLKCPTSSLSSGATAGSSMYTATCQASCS

Take `CC[C@H](C)[C@H](NC(=O)[C@H](Cc1ccccc1)NC(=O)[C@H](CCC(=O)O)NC(=O)[C@H](CCCCN)NC(=O)[C@H](C)NC(=O)[C@H](C)NC(=O)[C@H](CCC(N)=O)NC(=O)CNC(=O)[C@H](CCC(=O)O)NC(=O)[C@H](CC(C)C)NC(=O)[C@H](Cc1ccc(O)cc1)NC(=O)[C@H](CO)NC(=O)[C@H](CO)NC(=O)[C@@H](NC(=O)[C@H](CC(=O)O)NC(=O)[C@H](CO)NC(=O)[C@@H](NC(=O)[C@H](Cc1ccccc1)NC(=O)[C@@H](NC(=O)CNC(=O)[C@H](CCC(=O)O)NC(=O)[C@H](C)NC(=O)[C@@H](N)Cc1c[nH]cn1)[C@@H](C)O)[C@@H](C)O)C(C)C)C(=O)N[C@@H](C)C(=O)N[C@@H](Cc1c[nH]c2ccccc12)C(=O)N[C@@H](CC(C)C)C(=O)N[C@H](C(=O)N[C@@H](CCCNC(=N)N)C(=O)NCC(=O)N[C@@H](CCCNC(=N)N)C(=O)NCC(=O)O)C(C)C` [GLP1_C]: the “biological activity compared with wild-type GLP-1” value in assay [1] is “comparable biological activity to that of wild-type GLP-1”. The “blood glucose profile / blood glucose levels in IPGTT” value with C57BL/6J mice was “very similar to that of the negative control group”. On to “GLP1_16HSA (GLP-1 variant conjugated to human serum albumin at position 16) (from UniProt P02768 25-609)”, for which the EC50 of cAMP production in HEK-293 cells overexpressing GLP-1R in assay [2] worked out at 700 nM.

Source of the values: paper PMC7238188, “Recombinant Peptide Production Platform Coupled with Site-Specific Albumin Conjugation Enables a Convenient Production of Long-Acting Therapeutic Peptide” (Pharmaceutics, 2020).
